Results from PubChem BioAssay (NCI).
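Exposure lasted 48 hours, with cells grown in 96-well plates and compounds tested at five concentrations. The concentration for full growth arrest is given as TGI.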

Assays:
Experiment in all cases: NCI-60 cell line screen, 48 h
A498 renal = system: A498 renal
A549 NSCLC = system: A549 NSCLC
ACHN renal = system: ACHN renal
CCRF-CEM leukemia = system: CCRF-CEM leukemia
COLO 205 colon = system: COLO 205 colon
DLD-1 colon = system: DLD-1 colon
DMS 273 small cell lung = system: DMS 273 small cell lung
EKVX NSCLC = system: EKVX NSCLC
HCC-2998 colon = system: HCC-2998 colon
HCT-116 colon = system: HCT-116 colon
HCT-15 colon = system: HCT-15 colon
HL-60(TB) leukemia = system: HL-60(TB) leukemia
HOP-18 NSCLC = system: HOP-18 NSCLC
HOP-62 NSCLC = system: HOP-62 NSCLC
HOP-92 NSCLC = system: HOP-92 NSCLC
HT29 colon = system: HT29 colon
IGROV1 ovarian = system: IGROV1 ovarian
K-562 leukemia = system: K-562 leukemia
KM12 colon = system: KM12 colon
KM20L2 colon = system: KM20L2 colon
LOX IMVI melanoma = system: LOX IMVI melanoma
LXFL 529 NSCLC = system: LXFL 529 NSCLC
M14 melanoma = system: M14 melanoma
M19-MEL melanoma = system: M19-MEL melanoma
MALME-3M melanoma = system: MALME-3M melanoma
MOLT-4 leukemia = system: MOLT-4 leukemia
NCI-H226 lung = system: NCI-H226 lung
NCI-H23 lung = system: NCI-H23 lung
NCI-H460 lung = system: NCI-H460 lung
OVCAR-3 ovarian = system: OVCAR-3 ovarian
OVCAR-4 ovarian = system: OVCAR-4 ovarian
OVCAR-5 ovarian = system: OVCAR-5 ovarian
OVCAR-8 ovarian = system: OVCAR-8 ovarian
RPMI-8226 leukemia = system: RPMI-8226 leukemia
RXF 393 renal = system: RXF 393 renal
SF-268 CNS = system: SF-268 CNS
SF-295 CNS = system: SF-295 CNS
SF-539 CNS = system: SF-539 CNS
SK-MEL-2 melanoma = system: SK-MEL-2 melanoma
SK-MEL-28 melanoma = system: SK-MEL-28 melanoma
SK-MEL-5 melanoma = system: SK-MEL-5 melanoma
SK-OV-3 ovarian = system: SK-OV-3 ovarian
SN12C renal = system: SN12C renal
SNB-75 CNS = system: SNB-75 CNS
SNB-78 CNS = system: SNB-78 CNS
SR leukemia = system: SR leukemia
SW-620 colon = system: SW-620 colon
TK-10 renal = system: TK-10 renal
U251 CNS = system: U251 CNS
UACC-257 melanoma = system: UACC-257 melanoma
UACC-62 melanoma = system: UACC-62 melanoma
UO-31 renal = system: UO-31 renal
786-0 renal = system: 786-0 renal
BT-549 breast = system: BT-549 breast
CAKI-1 renal = system: CAKI-1 renal
DU-145 prostate = system: DU-145 prostate
HS 578T breast = system: HS 578T breast
MCF7 breast = system: MCF7 breast
MDA-MB-231 breast = system: MDA-MB-231 breast
MDA-MB-435 = system: MDA-MB-435
MDA-N = system: MDA-N
NCI-H522 lung = system: NCI-H522 lung
NCI/ADR-RES ovarian = system: NCI/ADR-RES ovarian
PC-3 prostate = system: PC-3 prostate
SNB-19 CNS = system: SNB-19 CNS
T-47D breast = system: T-47D breast

Cc1ccc(Sc2ccccc2[N+](=O)[O-])cc1
TGI (A498 renal): > 100 µM | TGI (A549 NSCLC): > 100 µM | TGI (ACHN renal): > 100 µM | TGI (CCRF-CEM leukemia): > 100 µM | TGI (COLO 205 colon): 62.3 µM | TGI (DLD-1 colon): > 100 µM | TGI (DMS 273 small cell lung): 82.5 µM | TGI (EKVX NSCLC): > 100 µM | TGI (HCC-2998 colon): 68.3 µM | TGI (HCT-116 colon): > 100 µM | TGI (HCT-15 colon): 62.2 µM | TGI (HL-60(TB) leukemia): 58.6 µM | TGI (HOP-18 NSCLC): > 100 µM | TGI (HOP-62 NSCLC): > 100 µM | TGI (HOP-92 NSCLC): 59.2 µM | TGI (HT29 colon): 62.2 µM | TGI (IGROV1 ovarian): > 100 µM | TGI (K-562 leukemia): > 100 µM | TGI (KM12 colon): > 100 µM | TGI (KM20L2 colon): > 100 µM | TGI (LOX IMVI melanoma): > 100 µM | TGI (LXFL 529 NSCLC): > 100 µM | TGI (M14 melanoma): > 100 µM | TGI (M19-MEL melanoma): > 100 µM | TGI (MALME-3M melanoma): > 100 µM | TGI (MOLT-4 leukemia): 81.4 µM | TGI (NCI-H226 lung): 71.2 µM | TGI (NCI-H23 lung): 78.2 µM | TGI (NCI-H460 lung): > 100 µM | TGI (OVCAR-3 ovarian): > 100 µM | TGI (OVCAR-4 ovarian): > 100 µM | TGI (OVCAR-5 ovarian): > 100 µM | TGI (OVCAR-8 ovarian): > 100 µM | TGI (RPMI-8226 leukemia): > 100 µM | TGI (RXF 393 renal): 59.8 µM | TGI (SF-268 CNS): > 100 µM | TGI (SF-295 CNS): 70.9 µM | TGI (SF-539 CNS): > 100 µM | TGI (SK-MEL-2 melanoma): > 100 µM | TGI (SK-MEL-28 melanoma): 60 µM | TGI (SK-MEL-5 melanoma): 30.8 µM | TGI (SK-OV-3 ovarian): > 100 µM | TGI (SN12C renal): > 100 µM | TGI (SNB-75 CNS): 40.6 µM | TGI (SNB-78 CNS): 95.4 µM | TGI (SR leukemia): > 100 µM | TGI (SW-620 colon): > 100 µM | TGI (TK-10 renal): > 100 µM | TGI (U251 CNS): 61.7 µM | TGI (UACC-257 melanoma): 67.8 µM | TGI (UACC-62 melanoma): > 100 µM | TGI (UO-31 renal): > 100 µM

Cn1c(=O)c2[nH]c(SCCN3CCOCC3)nc2n(C)c1=S
TGI (786-0 renal): > 100 µM | TGI (A498 renal): > 100 µM | TGI (A549 NSCLC): > 100 µM | TGI (ACHN renal): > 100 µM | TGI (BT-549 breast): > 100 µM | TGI (CAKI-1 renal): > 100 µM | TGI (CCRF-CEM leukemia): > 100 µM | TGI (COLO 205 colon): > 100 µM | TGI (DU-145 prostate): > 100 µM | TGI (EKVX NSCLC): > 100 µM | TGI (HCT-116 colon): > 100 µM | TGI (HCT-15 colon): > 100 µM | TGI (HL-60(TB) leukemia): > 100 µM | TGI (HOP-62 NSCLC): > 100 µM | TGI (HOP-92 NSCLC): > 100 µM | TGI (HS 578T breast): > 100 µM | TGI (HT29 colon): > 100 µM | TGI (IGROV1 ovarian): > 100 µM | TGI (K-562 leukemia): > 100 µM | TGI (KM12 colon): > 100 µM | TGI (LOX IMVI melanoma): > 100 µM | TGI (M14 melanoma): > 100 µM | TGI (MALME-3M melanoma): > 100 µM | TGI (MCF7 breast): > 100 µM | TGI (MDA-MB-231 breast): > 100 µM | TGI (MDA-MB-435): > 100 µM | TGI (MDA-N): > 100 µM | TGI (MOLT-4 leukemia): > 100 µM | TGI (NCI-H226 lung): > 100 µM | TGI (NCI-H23 lung): > 100 µM | TGI (NCI-H460 lung): > 100 µM | TGI (NCI-H522 lung): > 100 µM | TGI (NCI/ADR-RES ovarian): > 100 µM | TGI (OVCAR-3 ovarian): > 100 µM | TGI (OVCAR-4 ovarian): > 100 µM | TGI (OVCAR-5 ovarian): > 100 µM | TGI (OVCAR-8 ovarian): > 100 µM | TGI (PC-3 prostate): > 100 µM | TGI (RPMI-8226 leukemia): > 100 µM | TGI (RXF 393 renal): > 100 µM | TGI (SF-268 CNS): > 100 µM | TGI (SF-295 CNS): > 100 µM | TGI (SF-539 CNS): > 100 µM | TGI (SK-MEL-2 melanoma): > 100 µM | TGI (SK-MEL-28 melanoma): > 100 µM | TGI (SK-MEL-5 melanoma): > 100 µM | TGI (SK-OV-3 ovarian): > 100 µM | TGI (SN12C renal): > 100 µM | TGI (SNB-19 CNS): > 100 µM | TGI (SNB-75 CNS): > 100 µM | TGI (SR leukemia): > 100 µM | TGI (SW-620 colon): > 100 µM | TGI (T-47D breast): > 100 µM | TGI (TK-10 renal): > 100 µM | TGI (U251 CNS): > 100 µM | TGI (UACC-257 melanoma): > 100 µM | TGI (UACC-62 melanoma): > 100 µM | TGI (UO-31 renal): > 100 µM

CCCC1C(=O)Nc2cccc3ncn(c23)C1=O (stereo not given)
TGI (786-0 renal): > 100 µM | TGI (A498 renal): > 100 µM | TGI (A549 NSCLC): > 100 µM | TGI (ACHN renal): > 100 µM | TGI (BT-549 breast): > 100 µM | TGI (CAKI-1 renal): > 100 µM | TGI (CCRF-CEM leukemia): > 100 µM | TGI (COLO 205 colon): > 100 µM | TGI (DU-145 prostate): > 100 µM | TGI (EKVX NSCLC): > 100 µM | TGI (HCT-116 colon): > 100 µM | TGI (HCT-15 colon): > 100 µM | TGI (HL-60(TB) leukemia): > 100 µM | TGI (HOP-62 NSCLC): > 100 µM | TGI (HOP-92 NSCLC): > 100 µM | TGI (HS 578T breast): > 100 µM | TGI (HT29 colon): > 100 µM | TGI (IGROV1 ovarian): > 100 µM | TGI (K-562 leukemia): > 100 µM | TGI (KM12 colon): > 100 µM | TGI (M14 melanoma): > 100 µM | TGI (MALME-3M melanoma): > 100 µM | TGI (MCF7 breast): > 100 µM | TGI (MDA-MB-231 breast): > 100 µM | TGI (MDA-MB-435): > 100 µM | TGI (MDA-N): > 100 µM | TGI (MOLT-4 leukemia): > 100 µM | TGI (NCI-H226 lung): > 100 µM | TGI (NCI-H23 lung): > 100 µM | TGI (NCI-H460 lung): > 100 µM | TGI (NCI/ADR-RES ovarian): > 100 µM | TGI (OVCAR-3 ovarian): > 100 µM | TGI (OVCAR-4 ovarian): > 100 µM | TGI (OVCAR-5 ovarian): > 100 µM | TGI (OVCAR-8 ovarian): > 100 µM | TGI (PC-3 prostate): > 100 µM | TGI (RPMI-8226 leukemia): > 100 µM | TGI (RXF 393 renal): > 100 µM | TGI (SF-268 CNS): > 100 µM | TGI (SF-295 CNS): > 100 µM | TGI (SF-539 CNS): > 100 µM | TGI (SK-MEL-2 melanoma): > 100 µM | TGI (SK-MEL-28 melanoma): > 100 µM | TGI (SK-MEL-5 melanoma): > 100 µM | TGI (SK-OV-3 ovarian): > 100 µM | TGI (SN12C renal): > 100 µM | TGI (SNB-19 CNS): > 100 µM | TGI (SNB-75 CNS): > 100 µM | TGI (SR leukemia): > 100 µM | TGI (SW-620 colon): > 100 µM | TGI (T-47D breast): > 100 µM | TGI (U251 CNS): > 100 µM | TGI (UACC-257 melanoma): > 100 µM | TGI (UACC-62 melanoma): > 100 µM | TGI (UO-31 renal): > 100 µM
